Source: US9102635B2, “Substituted bisphenyl butanoic acid derivatives as NEP inhibitors with improved in vivo efficacy” (NOVARTIS AG, priority 2013, dated 2015)

Key:
peripheral NEP = target: T1, peripheral NEP (Rattus norvegicus, UniProt P07861); assay: ANP potentiation model in conscious rats (plasma ANP after oral dose); assay type: in vivo, Wistar Han (WH) rats; settings: for PANP % of baseline: 0- to 8-hr time-weighted average of plasma ANP, ANP infusion 450 ng/kg/min i.v.
T1 construct: from tissue; host or cells: whole animal: adult male Wistar Han rats (Charles River Labs), peripheral tissues
T1 sequence (P07861 1-750): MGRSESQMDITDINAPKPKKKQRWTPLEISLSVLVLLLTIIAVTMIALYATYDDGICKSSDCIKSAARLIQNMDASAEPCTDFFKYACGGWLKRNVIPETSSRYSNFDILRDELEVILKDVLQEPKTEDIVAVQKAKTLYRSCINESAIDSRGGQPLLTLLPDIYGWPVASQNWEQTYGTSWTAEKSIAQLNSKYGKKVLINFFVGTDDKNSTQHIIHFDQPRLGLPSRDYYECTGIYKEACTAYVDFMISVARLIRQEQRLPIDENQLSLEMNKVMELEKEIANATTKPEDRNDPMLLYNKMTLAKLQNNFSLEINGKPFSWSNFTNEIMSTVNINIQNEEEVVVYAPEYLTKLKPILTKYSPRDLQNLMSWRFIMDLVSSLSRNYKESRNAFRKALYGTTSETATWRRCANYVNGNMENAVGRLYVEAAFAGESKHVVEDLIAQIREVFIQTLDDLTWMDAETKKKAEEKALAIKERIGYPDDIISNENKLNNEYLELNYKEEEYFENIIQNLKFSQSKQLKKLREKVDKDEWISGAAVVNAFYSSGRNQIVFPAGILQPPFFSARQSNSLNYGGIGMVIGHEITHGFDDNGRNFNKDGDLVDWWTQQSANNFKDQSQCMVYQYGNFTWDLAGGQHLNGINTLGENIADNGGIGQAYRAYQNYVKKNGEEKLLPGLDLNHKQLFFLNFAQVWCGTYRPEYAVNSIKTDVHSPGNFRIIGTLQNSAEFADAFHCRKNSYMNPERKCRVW
Method: In particular, the in vivo inhibition of recombinant human neutral endopeptidase can be determined as follows:
Thus, the potentiation of plasma ANP was used as an index of the extent and duration of inhibition of peripheral NEP by the orally administered compounds.
They were housed on a 12-hr light/dark cycle (light: 6 am to 6 pm) at temperature and relative humidity set points of 72° F. and 55%, respectively. […] In this case, the evening before the experiment (˜5 pm) all but two of the rat's chow pellets were removed. On the morning of the experiment, any remaining food was removed. […] Food was returned at the experiment terminus.
Rats were surgically instrumented with catheters to allow collection of arterial blood samples and intravenous (i.v.) administration of ANP. Rats were anesthetized and maintained in a surgical plane of anesthesia with isoflurane (2% in 100% oxygen). Ophthalmic lubricant was applied to each eye to prevent corneal irritation. Meloxicam (0.2 mg/kg s.c.) was administered for analgesia. If necessary for pain management, a second injection of meloxicam was administered on the first post-operative day. Also, a dose of penicillin G (50,000 U/kg i.m.) was administered pre-operatively to prevent infection.
Under aseptic surgical conditions, a femoral artery and vein were isolated and catheters inserted. Catheters consisted of a ˜55-cm length of Tygon (PVC) Microbore tubing (0.020″, 0.060″ O.D.) bonded with cyclohexanone to a 4.5-cm length of polyurethane (0.012″ I.D., 0.025″ O.D., Micro-Renathane type MRE-025, Braintree Scientific, Inc., Braintree, Mass.) tubing. The catheters were tunneled subcutaneously and exteriorized in the mid-dorsal thoracic/abdominal region. Catheters exited through a subcutaneously anchored tether/swivel system which allowed the animal to move unrestrained in a specialized Plexiglas cage with perforated solid flooring. Catheters were flushed with sterile 0.9% saline and locked with 200 U/mL heparin in sterile 0.9% saline after the surgery was completed.
The rats were allowed to recover for at least one week before being studied while conscious and unrestrained. Rats were infused intravenously (450 ng/kg/min) with rat ANP (ANP (1-28), Product #14-5-41, American Peptide Company, Inc., Sunnyvale, Calif.). After 1 hr of ANP infusion, rats were treated by oral gavage with 1 mL/kg of vehicle (0.5% methylcellulose+0.1% Tween 80) or a selected dose of NEP inhibitor. ANP infusion was continued for an additional 8 hr. Arterial blood samples (0.20 mL) were withdrawn from the femoral arterial cannulas at various times (baseline or time 0, 0.25, 0.5, 1, 2, 4, 6, and 8 hr) into a collection tube containing 0.004 mL EDTA/protease inhibitor (PI) cocktail. Blood samples were centrifuged at 4° C. and 20K g to separate plasma. Plasma samples were aliquoted and frozen (−70° C.) for later analysis of plasma ANP (PANP) levels. The O— to 8-hr time-weighted averages of the PANP concentrations expressed as a percent of the baseline (time 0) PANP values were used to generate dose-response relationships.
The blood collection cocktail consisted of broad-spectrum serine and cysteine PIs and EDTA. […] It also anticoagulated the blood.
The frozen plasma sample was thawed on ice and 10 μL of plasma was diluted 1:10 in 1× assay buffer supplied with the kit. Ten μL of the diluted sample was then assayed. The manufacturer's instructions were followed for the assay protocol (total volume per well was expanded to 50 μl with 1× assay buffer). Absorbance was read (Molecular Devices SpectraMax Paradigm Multi-Mode Detection Platform) at 450 nm within ten minutes of the assay termination.

[1] = target: T2, recombinant human neutral endopeptidase (Homo sapiens, UniProt P08473); assay: in vitro inhibition of recombinant human neutral endopeptidase (fluorescence lifetime assay); assay type: biochemical; settings: 1 hour pre-incubation, 1 hour reaction, room temperature, pH 7.4; read-out: Human NEP IC50
T2 construct: made in house; host or cells: insect cells
Source text: The activity of a compound according to the present invention can be assessed by the following in vitro and in vivo methods and/or by the following in vitro and in vivo methods well-described in the art. See Doering K, Meder G, Hinnenberger M, Woelcke J, Mayr L M, Hassiepen U, (2009) “A fluorescence lifetime-based assay for protease inhibitor profiling on human kallikrein 7”, Biomol Screen, January; 14(1):1-9.
In particular, the in vitro inhibition of recombinant human neutral endopeptidase can be determined as follows:
Recombinant human neutral endopeptidase (expressed in insect cells and purified using standard methods, final concentration 7 pM) is pre-incubated with test compounds at various concentrations for 1 hour at room temperature in 10 mM sodium phosphate buffer at pH 7.4, containing 150 mM NaCl and 0.05% (w/v) CHAPS. The enzymatic reaction is started by the addition of a synthetic peptide substrate Cys(PT14)-Arg-Arg-Leu-Trp-OH to a final concentration of 0.7 μM. Substrate hydrolysis leads to an increase in fluorescence lifetime (FLT) of PT14 measured by means of a FLT reader as described by Doering et al. (2009) as referenced supra. The effect of the compound on the enzymatic activity was determined after 1 hour (t=60 min) incubation at room temperature. […]

T2 sequence (P08473 whole entry): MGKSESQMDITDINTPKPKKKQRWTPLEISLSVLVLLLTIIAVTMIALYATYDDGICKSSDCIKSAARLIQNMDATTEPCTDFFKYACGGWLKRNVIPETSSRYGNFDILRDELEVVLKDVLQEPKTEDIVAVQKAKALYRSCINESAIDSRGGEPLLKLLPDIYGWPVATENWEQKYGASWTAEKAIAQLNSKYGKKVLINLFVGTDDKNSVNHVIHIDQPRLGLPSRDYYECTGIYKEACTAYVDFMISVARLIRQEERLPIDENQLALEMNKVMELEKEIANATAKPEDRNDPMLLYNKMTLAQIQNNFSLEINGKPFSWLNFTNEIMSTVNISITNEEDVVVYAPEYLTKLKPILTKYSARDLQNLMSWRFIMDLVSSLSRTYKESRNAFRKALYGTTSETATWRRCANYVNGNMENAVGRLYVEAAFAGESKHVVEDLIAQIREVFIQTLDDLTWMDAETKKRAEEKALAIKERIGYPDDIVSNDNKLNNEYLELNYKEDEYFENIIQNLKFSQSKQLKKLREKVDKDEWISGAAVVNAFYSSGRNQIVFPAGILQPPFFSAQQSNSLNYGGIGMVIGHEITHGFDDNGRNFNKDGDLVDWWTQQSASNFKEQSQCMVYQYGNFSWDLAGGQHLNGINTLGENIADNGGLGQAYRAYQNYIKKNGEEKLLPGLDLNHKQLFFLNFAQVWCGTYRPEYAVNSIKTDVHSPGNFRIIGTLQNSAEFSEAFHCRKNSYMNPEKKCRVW

in vivo efficacy compared to Example 5-46 of WO2010/136493 (peripheral NEP; ANP potentiation model, oral)	PANP % of baseline (peripheral NEP; dose 1 mg/kg oral gavage)	PANP % of baseline (peripheral NEP; dose 3 mg/kg oral gavage)	PANP % of baseline (peripheral NEP; dose 10 mg/kg oral gavage)	IC50 [1] [nM]	PANP % of baseline (peripheral NEP; dose 30 mg/kg oral gavage)	PANP % of baseline (peripheral NEP; dose 100 mg/kg oral gavage)	Structure (SMILES)
superior efficacy	141 % of baseline	183 % of baseline	238 % of baseline	0.06	–	–	COc1ccc(F)cc1-c1ccc(C[C@H](CC(=O)O)NC(=O)c2n[nH]c(=O)o2)cc1 [Example 1, (R)-4-(5′-fluoro-2′-methoxy-[1,1-biphenyl]-4-yl)-3-(5-oxo-4,5-dihydro-1,3,4-oxadiazole-2-carboxamido)butanoic acid]
–	–	137 % of baseline	126 % of baseline	–	185 % of baseline	254 % of baseline	O=C(O)C[C@@H](Cc1ccc(-c2cccc(Cl)c2)cc1)NC(=O)c1n[nH]c(=O)o1 [Example 5-46 of WO2010/136493, reference compound]
